From patent EP1388013B1, “COMPOSITIONS AND METHODS FOR THE USE OF FIBRONECTIN FRAGMENTS IN THE DIAGNOSIS OF CANCER” (THE REGENTS OF THE UNIVERSITY OF MICHIGAN, priority 2001, dated 2002) come the findings set out here.

No end group written: not given here.

This test concerns metastatic DU-145 prostate cancer cells. Description: SU-ECM invasion assay, DU-145 cells. To be noted: PHSRN sequence of fibronectin alone; Example 4. Format: cell-based, human. How it is done:
Adult Strongylocentrotus purpuratus sea urchins were obtained from Pacific BioMarine, and their embryos were cultured to the early pluteus stage in artificial sea water at 15°C. SU-ECM were prepared from them by treatment with nonionic detergent and sterilized by dilution in the appropriate media.
[…] When appropriate, purified bovine plasma fibronectin (Sigma, St. Louis, Mo), purified 120 kDa chymotryptic fragment (Gibco BRL), PHSRN or PHSCN peptides (synthesized at the Biomedical Research Core Facilities of the University of Michigan), or GRGDSP or GRGESP peptides (Gibco BRL) were added to the resuspended cells prior to placement of the cells on SU-ECM. In each well of a plate used for an invasion assay, SU-ECM were placed in 0.5 ml of the appropriate medium, and 0.5ml of the resuspended cells dropped on their exterior surfaces. Invasion assays were incubated 1 to 16 hours prior to scoring. If some circumstances, invasion assays were fixed in phosphate-buffered saline (PBS) with 2% formaldehyde for 5 minutes at room temperature, then rinsed into PBS.
Invasion assays were coded and scored blindly by microscopic examination under phase contrast at 200- and 400-fold magnification. Each cell contacting an SU-ECM was scored for its position relative to the exterior or interior surfaces. A cell was judged to have invaded if it was located on an interior surface below the focal plane passing through the upper surface of the SU-ECM, but above the focal plane passing through its lower surface. The minimum viability of the cells in each assay was always ascertained at the time of assay by determining the fraction of spread, adherent cells on the bottom of each well scored.
An invasion frequency is defined as the fraction of cells in contact with basement membranes which were located in their interiors at the time of assay. Thus, an invasion frequency of 1 denotes invasion by 100% of the cells in contact with basement membranes. Invasion frequencies were determined multiple times for each cell type assayed. For each type of cell assayed the mean and standard deviation of the invasion frequencies were calculated.
The method of Example 4 is employed, with the addition of varying concentrations of the PHSCN peptide.
Thus, the procedure in Example 4 provides a method for determining the inhibitory potential of the PHSCN peptide by comparing the number of cell invasions in the presence of the PHSCN peptide, with the number of cell invasions in the absence of the PHSCN peptide.
In this example, in vitro invasion of cancer cells into substrates is inhibited with peptides that have been chemically modified with protecting groups and peptides having protecting groups as well as the modification wherein an L-amino acid has been replaced with the D-isomer. PHSCN peptide, blocked PHSCN peptide, and blocked PHSCN peptide with a D-cysteine instead of the L-isomer, were tested (Figure 4A, 4B).
In this example, in vitro invasion of cancer cells into substrates is inhibited with non-peptide mimetics in comparison with chemically modified peptides (on a molar basis). The peptides of Example 10 (i.e. peptides chemically modified with protecting groups and peptides having protecting groups as well as the modification wherein an L-amino acid has been replaced with the D-isomer) were compared with the non-peptide mimetics DL-N-Acetylhomocysteinethiolactone, Thiobutyrolactone, and Mercaptopropionic acid, in order to investigate the structure activity relationship for invasion inhibition by interaction with the PHSRN-binding pocket of the α5β1 fibronectin receptor (Figure 7)

In the case of PHSRN [PHSRN], the “induction of DU-145 cell invasion of SU-ECM” value is listed as “induced to invade”.
